Test results published in ChEMBL document CHEMBL5214990, “Novel Aryl Alkamidazole Derivatives as Multifunctional Antifungal Inhibitors: Design, Synthesis, and Biological Evaluation” (J Med Chem, 2022).
≈ marks a conversion by molar mass, not a printed value.

Legend:
Assay type in all cases: functional
Candida albicans = assay: Antifungal activity against Candida albicans ATCC SC5314 assessed as inhibition of fungal growth measured after 72 hrs by CLSI based liquid medium dilution method
Cryptococcus neoformans = assay: Antifungal activity against Cryptococcus neoformans assessed as inhibition of fungal growth measured after 72 hrs by CLSI based liquid medium dilution method
Pichia kudriavzevii = assay: Antifungal activity against Candida krusei ATCC 6258 assessed as inhibition of fungal growth measured after 72 hrs by CLSI based liquid medium dilution method
Candida tropicalis = assay: Antifungal activity against Candida tropicalis ATCC 1369 assessed as inhibition of fungal growth measured after 72 hrs by CLSI based liquid medium dilution method
Aspergillus fumigatus = assay: Antifungal activity against Aspergillus fumigatus KM8001 assessed as inhibition of fungal growth measured after 72 hrs by CLSI based liquid medium dilution method

| SMILES | MIC50 (Candida albicans) [µg/mL] | MIC50 (Cryptococcus neoformans) [µg/mL] | MIC50 (Pichia kudriavzevii) [µg/mL] | MIC50 (Candida tropicalis) [µg/mL] | MIC50 (Aspergillus fumigatus) [µg/mL] |
| --- | --- | --- | --- | --- | --- |
| C[C@H](C(=O)OC(Cn1cnnn1)c1ccc(Cl)cc1)c1ccc(CC2CCCC2=O)cc1 (stereo not given in full) | 2 (≈ 4.42 µM) | 4 (≈ 8.83 µM) | 2 (≈ 4.42 µM) | 1 (≈ 2.21 µM) | > 8 |
| COc1ccc2cc([C@H](C)C(=O)N[C@H](Cn3ccnc3)c3ccccc3)ccc2c1 | 1 (≈ 2.5 µM) | 1 (≈ 2.5 µM) | 0.5 (≈ 1.25 µM) | 0.5 (≈ 1.25 µM) | > 8 |
| COc1ccc2cc([C@H](C)C(=O)OC(Cn3cnnn3)c3ccc(F)cc3)ccc2c1 (stereo not given in full) | 1 (≈ 2.38 µM) | 1 (≈ 2.38 µM) | 0.5 (≈ 1.19 µM) | 2 (≈ 4.76 µM) | > 8 |
| C[C@H](C(=O)N[C@H](Cn1ccnc1)c1ccccc1)c1cccc(C(=O)c2ccccc2)c1 | 1 (≈ 2.36 µM) | 0.5 (≈ 1.18 µM) | 1 (≈ 2.36 µM) | 2 (≈ 4.72 µM) | > 8 |
| C[C@H](C(=O)N[C@H](Cn1cncn1)c1ccccc1)c1ccc(CC2CCCC2=O)cc1 (stereo not given in full) | 1 (≈ 2.4 µM) | 2 (≈ 4.8 µM) | 0.5 (≈ 1.2 µM) | 2 (≈ 4.8 µM) | > 8 |
| C[C@H](C(=O)N[C@H](Cn1cncn1)c1ccccc1)c1cccc(C(=O)c2ccccc2)c1 | 1 (≈ 2.36 µM) | 2 (≈ 4.71 µM) | 0.5 (≈ 1.18 µM) | 1 (≈ 2.36 µM) | 2 (≈ 4.71 µM) |
| C[C@H](C(=O)N[C@H](Cn1ccnc1)c1ccccc1)c1ccc(CC2CCCC2=O)cc1 (stereo not given in full) | 2 (≈ 4.81 µM) | 1 (≈ 2.41 µM) | 0.5 (≈ 1.2 µM) | 0.5 (≈ 1.2 µM) | 4 (≈ 9.63 µM) |
| COc1ccc2cc([C@H](C)C(=O)N(C)CC(O)(Cn3ccnc3)c3ccc(F)cc3)ccc2c1 (stereo not given in full) | 0.5 (≈ 1.08 µM) | 1 (≈ 2.17 µM) | 1 (≈ 2.17 µM) | 0.25 (≈ 0.542 µM) | > 8 |
| C[C@H](C(=O)OC(Cn1ccnc1)c1ccc(F)cc1)c1ccc(CC2CCCC2=O)cc1 (stereo not given in full) | 2 (≈ 4.6 µM) | 2 (≈ 4.6 µM) | 1 (≈ 2.3 µM) | 2 (≈ 4.6 µM) | > 8 |
| COc1ccc2cc([C@H](C)C(=O)OC(Cn3cnnn3)c3ccc(Cl)cc3)ccc2c1 (stereo not given in full) | 0.5 (≈ 1.14 µM) | 0.5 (≈ 1.14 µM) | 0.25 (≈ 0.572 µM) | 0.5 (≈ 1.14 µM) | 4 (≈ 9.16 µM) |

Further compounds by falling MIC50 (Candida albicans), results first:

| MIC50 (Candida albicans) [µg/mL] | MIC50 (Cryptococcus neoformans) [µg/mL] | MIC50 (Pichia kudriavzevii) [µg/mL] | MIC50 (Candida tropicalis) [µg/mL] | MIC50 (Aspergillus fumigatus) [µg/mL] | SMILES |
| --- | --- | --- | --- | --- | --- |
| 0.5 (≈ 1.08 µM) | 0.5 (≈ 1.08 µM) | 1 (≈ 2.17 µM) | 2 (≈ 4.34 µM) | > 8 | C[C@H](C(=O)OC(Cn1cnnn1)c1ccc(Cl)cc1)c1cccc(C(=O)c2ccccc2)c1 (stereo not given in full) |
| 0.5 (≈ 1.19 µM) | 1 (≈ 2.39 µM) | 2 (≈ 4.78 µM) | 0.5 (≈ 1.19 µM) | 4 (≈ 9.56 µM) | COc1ccc2cc([C@H](C)C(=O)OC(Cn3ccnc3)c3ccc(F)cc3)ccc2c1 (stereo not given in full) |
| 0.5 (≈ 0.976 µM) | 0.5 (≈ 0.976 µM) | 2 (≈ 3.9 µM) | 0.25 (≈ 0.488 µM) | 4 (≈ 7.81 µM) | COc1ccc2cc([C@H](C)C(=O)N(C)CC(O)(Cn3ccnc3)c3ccc(Cl)cc3Cl)ccc2c1 (stereo not given in full) |
| 0.5 (≈ 1.13 µM) | 0.5 (≈ 1.13 µM) | 0.5 (≈ 1.13 µM) | 2 (≈ 4.52 µM) | 4 (≈ 9.04 µM) | C[C@H](C(=O)OC(Cn1ccnc1)c1ccc(F)cc1)c1cccc(C(=O)c2ccccc2)c1 (stereo not given in full) |
| 0.5 (≈ 1.21 µM) | 0.5 (≈ 1.21 µM) | 0.5 (≈ 1.21 µM) | 0.25 (≈ 0.603 µM) | 4 (≈ 9.65 µM) | C[C@H](C(=O)N[C@H](Cn1cncn1)c1ccccc1)c1ccc(-c2ccccc2)c(F)c1 |
| 0.5 (≈ 1.21 µM) | 0.5 (≈ 1.21 µM) | 0.25 (≈ 0.605 µM) | 0.5 (≈ 1.21 µM) | 4 (≈ 9.67 µM) | C[C@H](C(=O)N[C@H](Cn1ccnc1)c1ccccc1)c1ccc(-c2ccccc2)c(F)c1 |
| 0.5 (≈ 1.05 µM) | 2 (≈ 4.18 µM) | 1 (≈ 2.09 µM) | 1 (≈ 2.09 µM) | > 8 | COc1ccc2cc([C@H](C)C(=O)N(C)CC(O)(Cn3ccnc3)c3ccc(Cl)cc3)ccc2c1 (stereo not given in full) |
| 0.5 (≈ 1.12 µM) | 0.5 (≈ 1.12 µM) | 0.5 (≈ 1.12 µM) | 1 (≈ 2.25 µM) | > 8 | C[C@H](C(=O)OC(Cn1cnnn1)c1ccc(F)cc1)c1cccc(C(=O)c2ccccc2)c1 (stereo not given in full) |
| 0.25 (≈ 0.526 µM) | 0.5 (≈ 1.05 µM) | 0.25 (≈ 0.526 µM) | 0.25 (≈ 0.526 µM) | 4 (≈ 8.41 µM) | C[C@H](C(=O)N(C)CC(O)(Cn1ccnc1)c1ccc(F)cc1)c1ccc(-c2ccccc2)c(F)c1 (stereo not given in full) |
